Values of other authors, collected in patent US12280067B2 (Phenolics, LLC, priority 2019, dated 2025).

Legend:
[1] = tested on: Caco-2 monolayers; settings: Dash et al. 2001
[2] = rats, injected intravenously
[3] = oral, 6-week period, versus creatine monohydrate

SMILES | Permeability via Caco-2 monolayers [1] | ATP levels in red blood cells [2] | Bio-transformation and elimination in the body [2] | Effectiveness in achieving lean body mass, desired body weight and improved strength [3]
CN(CC(=O)O)C(=N)N [creatine] | quite low | – | – | –
CN(CC(=O)O)C(=N)NP(=O)(O)O [phosphocreatine, N-Methyl-N-(phosphono-carbamimidoyl)glycine] | – | significant elevation | very rapidly | as effective as creatine monohydrate
